Data reported in ChEMBL document CHEMBL3603836, “Hybrid pyrimidine alkynyls inhibit the clinically resistance related Bcr-Abl(T315I) mutant” (Bioorg Med Chem Lett, 2015).
Active and inactive are the calls of the source. The calls are words filed in the database; no cut-off is given here.

Columns and labels:
K562 [1] = assay: Induction of apoptosis in human K562 cells expressing wild type Bcr-Abl assessed as late apoptotic cells at 100 nM after 24 hrs using annexin-V/7-AAD staining by FACS analysis (reference value: 2.1%); format: functional
[2] = Ratio of Cmax in Sprague-Dawley rat at 25 mg/kg, po to IC50 for Bcr-Abl T315I mutant (unknown origin); format: ADME, organism-based; details: in vivo
K562 [3] = assay: Antitumor activity against human K562 cells expressing wild type Bcr-Abl xenografted in po dosed mouse assessed as tumor growth inhibition administered qd for 16 days; format: functional, organism-based
K562 [4] = assay: Cell cycle arrest in human K562 cells expressing wild type Bcr-Abl assessed as accumulation at G0/G1 phase at 100 nM after 24 hrs using propidium iodide staining by flow cytometry (reference value: 64.03%); format: functional
[5] = system: Tyrosine-protein kinase ABL1 (Mus musculus), P00520 [T315I]; assay: Inhibition of Bcr-Abl T315I mutant in mouse BA/F3 cells assessed as total protein level of CRKL at 4 to 500 nM after 4 hrs by Western blot analysis; format: cell-based; details: BaF3
K562 [6] = assay: Induction of apoptosis in human K562 cells expressing wild type Bcr-Abl assessed as late apoptotic cells at 20 nM after 24 hrs using annexin-V/7-AAD staining by FACS analysis (reference value: 2.1%); format: functional
BaF3 [7] = assay: Induction of apoptosis in mouse BA/F3 cells expressing Bcr-Abl T315I mutant assessed as late apoptotic cells at 20 nM after 24 hrs using annexin-V/7-AAD staining by FACS analysis (reference value: 2.2%); format: functional
[8] = system: Tyrosine-protein kinase ABL1 (Mus musculus), P00520 [T315I]; assay: Inhibition of Bcr-Abl T315I mutant in mouse BA/F3 cells assessed as reduction of CRKL phosphorylation at 4 to 500 nM after 4 hrs by Western blot analysis; format: cell-based; details: BaF3
K562 [9] = assay: Induction of apoptosis in human K562 cells expressing wild type Bcr-Abl assessed as early apoptotic cells at 0.8 nM after 24 hrs using annexin-V/7-AAD staining by FACS analysis (reference value: 7.3%); format: functional
[10] = system: Tyrosine-protein kinase ABL1 (Mus musculus), P00520 [T315I]; assay: Inhibition of Bcr-Abl T315I mutant phosphorylation in mouse BA/F3 cells after 4 hrs by Western blot analysis; format: cell-based; details: BaF3
BaF3 [11] = assay: Induction of apoptosis in mouse BA/F3 cells expressing Bcr-Abl T315I mutant assessed as early apoptotic cells at 20 nM after 24 hrs using annexin-V/7-AAD staining by FACS analysis (reference value: 4.6%); format: functional
BaF3 [12] = assay: Induction of apoptosis in mouse BA/F3 cells expressing Bcr-Abl T315I mutant assessed as late apoptotic cells at 4 nM after 24 hrs using annexin-V/7-AAD staining by FACS analysis (reference value: 2.2%); format: functional
Bcr/Abl fusion protein [13] = target: Bcr/Abl fusion protein (Homo sapiens, UniProt P00519, T315I); format: protein assay
Bcr/Abl fusion protein [14] = target: Bcr/Abl fusion protein (Homo sapiens, UniProt P00519); format: protein assay
Description: Inhibition of wild type Bcr-Abl (unknown origin) using Tyr2 peptide substrate after 2 hrs by FRET-based Z'-lyte assay

K562 [15] = assay: Cell cycle arrest in human K562 cells expressing wild type Bcr-Abl assessed as accumulation at G0/G1 phase at 4 nM after 24 hrs using propidium iodide staining by flow cytometry (reference value: 64.03%); format: functional
BaF3 [16] = assay: Antitumor activity against mouse BA/F3 cells expressing Bcr-Abl T315I mutant allografted in po dosed mouse assessed as tumor growth inhibition administered qd for 16 days; format: functional, organism-based
Mus musculus = assay: Toxicity in human K562 cells expressing wild type Bcr-Abl xenografted mouse assessed as mortality at 3.3 to 10 mg/kg, po qd for 16 days; format: organism-based; details: in vivo, 384 h
K562 [17] = assay: Induction of apoptosis in human K562 cells expressing wild type Bcr-Abl assessed as early apoptotic cells at 20 nM after 24 hrs using annexin-V/7-AAD staining by FACS analysis (reference value: 7.3%); format: functional
K562 [18] = assay: Cell cycle arrest in human K562 cells expressing wild type Bcr-Abl assessed as accumulation at G0/G1 phase at 0.8 nM after 24 hrs using propidium iodide staining by flow cytometry (reference value: 64.03%); format: functional

Chain of Tyrosine-protein kinase ABL1 (Mus musculus), P00520 [T315I] (P00520 whole entry T315I): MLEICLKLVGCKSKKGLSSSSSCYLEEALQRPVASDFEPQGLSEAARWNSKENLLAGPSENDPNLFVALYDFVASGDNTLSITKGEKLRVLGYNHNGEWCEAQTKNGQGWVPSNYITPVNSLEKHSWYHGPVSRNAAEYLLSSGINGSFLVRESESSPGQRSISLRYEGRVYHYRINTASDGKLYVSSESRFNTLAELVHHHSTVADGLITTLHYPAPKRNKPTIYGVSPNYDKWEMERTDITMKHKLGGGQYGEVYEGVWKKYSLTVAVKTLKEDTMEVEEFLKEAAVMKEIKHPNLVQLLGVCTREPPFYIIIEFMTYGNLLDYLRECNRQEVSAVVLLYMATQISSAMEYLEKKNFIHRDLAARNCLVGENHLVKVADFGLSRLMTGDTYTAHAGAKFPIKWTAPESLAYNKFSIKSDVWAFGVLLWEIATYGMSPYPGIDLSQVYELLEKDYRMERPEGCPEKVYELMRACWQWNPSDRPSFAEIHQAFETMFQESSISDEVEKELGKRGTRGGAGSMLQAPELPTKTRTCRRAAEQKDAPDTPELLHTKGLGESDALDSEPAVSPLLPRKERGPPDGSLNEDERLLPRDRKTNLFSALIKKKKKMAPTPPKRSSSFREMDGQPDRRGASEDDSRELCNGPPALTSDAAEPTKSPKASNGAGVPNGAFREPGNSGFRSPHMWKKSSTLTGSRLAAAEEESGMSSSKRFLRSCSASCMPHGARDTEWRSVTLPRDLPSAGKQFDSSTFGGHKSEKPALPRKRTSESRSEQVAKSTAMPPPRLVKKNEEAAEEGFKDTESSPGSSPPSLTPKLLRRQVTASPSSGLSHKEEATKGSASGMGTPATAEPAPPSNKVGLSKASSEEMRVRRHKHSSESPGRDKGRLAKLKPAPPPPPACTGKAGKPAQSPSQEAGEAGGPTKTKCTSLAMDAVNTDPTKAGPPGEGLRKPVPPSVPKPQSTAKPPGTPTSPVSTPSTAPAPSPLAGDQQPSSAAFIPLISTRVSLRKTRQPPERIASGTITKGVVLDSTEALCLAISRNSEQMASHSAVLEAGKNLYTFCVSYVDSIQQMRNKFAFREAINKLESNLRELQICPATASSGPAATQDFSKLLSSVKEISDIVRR

## Cc1cn(-c2cc(NC(=O)c3ccc(C)c(C#Cc4cnc(NC5CC5)nc4)c3)cc(C(F)(F)F)c2)cn1
K562 [1]
  Activity: 9%
[2]
  Ratio: 1333
K562 [3]
  growth inhibition (GI): Dose-dependent effect
K562 [4]
  Activity: 91.44%
[5]
  inhibition: inactive
K562 [6]
  Activity: 2.5%
BaF3 [7]
  Activity: 4.1%
[8]
  inhibition: Active
K562 [9]
  Activity: 7.1%
[10]
  inhibition: Dose-dependent effect
BaF3 [11]
  Activity: 6.6%
BaF3 [12]
  Activity: 3.3%
Bcr/Abl fusion protein [13]
  IC50: 9 nM
Bcr/Abl fusion protein [14]
  IC50: 5 nM
K562 [15]
  Activity: 85.99%
BaF3 [16]
  growth inhibition (GI): Dose-dependent effect
Mus musculus
  Activity: Non-toxic
K562 [17]
  Activity: 14.2%
K562 [18]
  Activity: 67.61%
